This note sets out measurements from ChEMBL document CHEMBL4673288, “Structure-activity relationship of novel acridone derivatives as antiproliferative agents” (Bioorg Med Chem, 2021).

Calls of active or inactive are those of the source. The calls are words filed in the database; no cut-off is given here.

For one assay, the system named is K562. Description: Antiproliferative activity against human K562 cells assessed as reduction in cell viability incubated for 48 hrs by MTT assay. It counts as functional, cell-based. The following applies: K562, 48 h.
Another assay relates to HCT-116. In words: Antiproliferative activity against human HCT-116 cells assessed as reduction in cell viability incubated for 72 hrs by SRB assay. The class given is functional, cell-based. To be noted: HCT-116, 72 h.
The next assay deals with SW480. Description: Antiproliferative activity against human SW480 cells assessed as reduction in cell viability incubated for 72 hrs by SRB assay. The following applies: SW480, 72 h. It counts as functional, cell-based.
Assay [1] concerns the target DNA topoisomerase 2-alpha (Homo sapiens) (UniProt P11388). Description: Inhibition of recombinant human topoisomerase 2 alpha-mediated relaxation of supercoiled pBR322 DNA at 200 uM incubated for 30 mins by ethidium bromide staining based agarose gel electrophoresis method.
The subject of a further assay is HepG2. In words: Antiproliferative activity against human HepG2 cells assessed as reduction in cell viability incubated for 48 hrs by MTT assay. It counts as functional, cell-based. To be noted: HepG2, 48 h.

Chain of DNA topoisomerase 2-alpha (Homo sapiens) (P11388 whole entry): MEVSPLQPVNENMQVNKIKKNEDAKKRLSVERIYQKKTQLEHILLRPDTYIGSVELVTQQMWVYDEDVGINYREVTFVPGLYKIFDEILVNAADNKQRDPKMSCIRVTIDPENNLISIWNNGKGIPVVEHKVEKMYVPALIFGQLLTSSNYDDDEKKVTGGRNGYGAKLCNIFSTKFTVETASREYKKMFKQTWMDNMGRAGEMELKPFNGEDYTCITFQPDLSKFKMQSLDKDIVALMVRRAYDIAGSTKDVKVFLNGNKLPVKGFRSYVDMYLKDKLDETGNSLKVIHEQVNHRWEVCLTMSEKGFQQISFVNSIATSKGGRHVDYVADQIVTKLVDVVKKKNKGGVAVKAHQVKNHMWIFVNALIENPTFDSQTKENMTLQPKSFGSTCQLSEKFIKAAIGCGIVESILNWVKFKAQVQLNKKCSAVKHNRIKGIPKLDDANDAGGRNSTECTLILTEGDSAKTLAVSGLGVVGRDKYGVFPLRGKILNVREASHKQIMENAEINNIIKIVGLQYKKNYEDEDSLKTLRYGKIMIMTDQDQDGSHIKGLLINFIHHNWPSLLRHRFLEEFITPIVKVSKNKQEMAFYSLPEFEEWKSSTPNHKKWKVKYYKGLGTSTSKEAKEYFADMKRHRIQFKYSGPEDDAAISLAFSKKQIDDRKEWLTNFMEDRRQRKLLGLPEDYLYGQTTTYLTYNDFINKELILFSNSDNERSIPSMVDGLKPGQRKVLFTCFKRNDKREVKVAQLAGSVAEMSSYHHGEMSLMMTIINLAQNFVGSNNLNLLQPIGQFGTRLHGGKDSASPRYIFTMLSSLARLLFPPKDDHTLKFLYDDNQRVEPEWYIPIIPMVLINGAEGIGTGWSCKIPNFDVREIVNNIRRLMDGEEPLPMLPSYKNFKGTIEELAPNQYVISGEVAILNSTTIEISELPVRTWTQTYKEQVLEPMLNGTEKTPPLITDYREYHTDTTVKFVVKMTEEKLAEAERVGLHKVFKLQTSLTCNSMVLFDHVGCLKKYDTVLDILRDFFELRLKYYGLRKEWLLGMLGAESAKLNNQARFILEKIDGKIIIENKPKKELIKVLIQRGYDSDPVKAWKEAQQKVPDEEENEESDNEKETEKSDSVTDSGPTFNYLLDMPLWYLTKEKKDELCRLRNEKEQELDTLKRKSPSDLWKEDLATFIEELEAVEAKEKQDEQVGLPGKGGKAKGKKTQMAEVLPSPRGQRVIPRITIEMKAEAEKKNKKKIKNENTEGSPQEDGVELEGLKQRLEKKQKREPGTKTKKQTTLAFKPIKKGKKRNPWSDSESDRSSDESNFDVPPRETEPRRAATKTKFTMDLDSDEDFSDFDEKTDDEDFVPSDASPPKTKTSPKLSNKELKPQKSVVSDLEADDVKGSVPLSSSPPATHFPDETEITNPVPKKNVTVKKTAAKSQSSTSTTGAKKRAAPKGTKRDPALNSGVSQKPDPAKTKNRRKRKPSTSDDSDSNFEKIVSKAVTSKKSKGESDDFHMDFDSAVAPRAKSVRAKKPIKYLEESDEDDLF

Consider `CCCCCCCCCCCOc1ccc(OCc2ccc(C(=O)N[C@@H](Cc3ccccc3)C(=O)O)cc2)c2c1C(=O)c1ccccc1C2=O`, for which, in the assay with K562, the IC50 turned out to be 1820 nM.
`COc1cc([C@@H]2c3cc4c(cc3[C@@H](O[C@@H]3O[C@@H]5CO[C@@H](C)O[C@H]5[C@H](O)[C@H]3O)[C@H]3COC(=O)[C@H]23)OCO4)cc(OC)c1O` [ETOPOSIDE]: the figures for the IC50 in the assay with K562, with HCT-116 and in the assay on SW480 were 10800 nM, 1700 nM and 600 nM, respectively. Further, in assay [1], the inhibition entry is “Active”.
Consider `CCCCCCCCCCCCOc1ccc(OCCCCNCCCCNCCCNCCC)c2c1C(=O)c1ccccc1C2=O`, for which, in the assay on HepG2, the half-inhibitory concentration (IC50) came to 8800 nM.
Consider `O=C1c2c(O)ccc(O)c2C(=O)c2c(NCCNCCO)ccc(NCCNCCO)c21` [MITOXANTRONE], for which the results for the 50% inhibitory concentration (IC50) with HepG2 and in the assay on K562 were 15300 nM and 2350 nM, respectively.
